The record followed here is patent publication US20200237852A1, “Small Molecule Enhancers of Paneth Cell Function and Differentiation” (Massachusetts Institute of Technology, priority 2019, published 2020).

Assay [1] deals with ISC-enriched organoids in ENR+CD. The assay is described as follows: 384-well secondary screen in ENR+CD incl. early vs. full treatment, secreted LYZ (LYZ.NS, LYZ.S). In kind it is cell-based, C57BL/6 mice. To be noted: 6-day ENR+CD+treatment vs ENR+CD+DMSO; cutoff 0.89, 8 replicates. From the text:
We again assessed treatment effect size with replicate SSMD (using a difference between well replicates and median assay value for all same-plate control wells—see Materials and Methods, High-throughput screening: 384-well secondary screen format and early vs. full treatment analysis) and hits were considered statistically validated by an SSMD greater than the false-positive-derived cutoffs (βα1=0.89 for 8 replicates with alpha=0.05; see Materials and Methods, High-throughput screening: 384-well secondary screen format and early vs. full treatment analysis) for both LYZ.NS and LYZ.S assays (FIG. 7A). Per this new cutoff, 10 dose-treatment combinations corresponding to 7 small molecules were chosen as hits, with every passing dose-treatment having a greater than 0 ATP effect size.
For 384-well plate high-throughput screening, ISC-enriched organoids were passaged and split to single cells with TyrpLE (Thermo Fisher Scientific) and cultured for 2-3 days in ENR+CVY prior to transfer to a “2.5-D” 384-well plate culture system. To prepare for “2.5D” plating, cell-laden Matrigel and media were homogenized via mechanical disruption and centrifuged at 300 g for 3 min at 4° C. Supernatant was removed and the pellet washed and spun in basal culture medium repeatedly until the cloudy Matrigel above the cell pellet was gone. On the final wash, pellet was resuspended in basal culture medium, the number of organoids counted, and the cell pellet was resuspended in ENR+CD medium at ˜7 clusters/μL. 384-well plates were first filled with 10 μL of 70% Matrigel (30% basal media) coating in each well using a Tecan Evo 150 Liquid Handling Deck, and allowed to gel at 37° C. for 5 minutes. Then 30 μL of cell-laden media was plated at the center of each well of 384-well plates with the liquid handler, and the plates were spun down at 50 g for 1 minute to embed organoids on the Matrigel surface. Compound libraries were pinned into prepped cell plates using 50 nL pins into 30 μL media/well. Cells were cultured at 37° C. with 5% CO2 for six days in ENR+CD medium supplemented with the tested compounds with a media change at three days. On day six, lysozyme secretion and cell viability were assessed using Lysozyme Assay Kit (EnzChek) and CellTiter-Glo 3D Cell Viability Assay (Promega), respectively, according to the manufacturers' protocols. Briefly, screen plates were washed 3× with FluoroBrite basal media (2 mM GlutaMAX and 10 mM HEPES in FluoroBrite DMEM (Thermo Fisher Scientific)) using a BioTek 406 plate washer with 10 min incubations followed by a 1 min centrifugation at 200 g to settle media between washes. After removal of the third wash, 30 μL of non-stimulated FluoroBrite basal media was added to each screen well using a Tecan Evo 150 Liquid Handling Deck from a non-stimulated treatment master plate, and plates were incubated for 30 min at 37° C. After 30 minutes, the top 15 μL of media from each well of the screen plate was transferred to a non-stimulated LYZ assay plate containing 15 μL of 20× DQ LYZ assay working solution using a Tecan Evo 150 Liquid Handling Deck. The non-stimulated LYZ assay plate was covered, shaken for 10 min, incubated for 50 min at 37° C., then fluorescence measured (shake 10 s; […]/518 nm) using a Tecan M1000 Plate Reader. After the media transfer to the non-stimulated LYZ assay plate, the remaining media was removed from the screen plate and 30 μL of Stimulated FluoroBrite basal media (supplemented with 10 μM CCh) was added to each screen well using a Tecan Evo 150 Liquid Handling Deck from a stimulated treatment master plate, and plates were incubated for 30 min at 37° C. After 30 minutes, the top 15 μL of media from each well of the screen plate was transferred to a stimulated LYZ assay plate containing 15 μL of 20× DQ LYZ assay working solution using a Tecan Evo 150 Liquid Handling Deck. […]

For assay [2], the system named is ENR+CD organoids. Put plainly: Flow cytometry analysis, 3D culture, XPO1 inhibitors. In kind it is cell-based, C57BL/6 mice. To be noted: 6-day ENR+CD organoids. How it is done:
ISC-enriched organoids cultured in 3D Matrigel with ENRCV media were passaged to 24-well plate in 3D Matrigel with ENRCV. At day zero, media were replaced to ENRCD with or without indicated compounds, and media were replaced every other day. At day six, cells were washed with basal media, and then harvested from Matrigel by mechanical disruption in TrypLE Express (ThermoFisher, 12605010) to remove Matrigel and dissociate organoids to single cells. After vigorous pipetting and incubation at 37° C. for 20 min, dissociated organoids were strained through a 35 μm cell strainer into a tube (Falcon, 352235). The cell filtrate was centrifuged again at 300×g for 3 min at 4° C. to pellet the cells. Cell pellets were resuspended in FACS buffer (2% FBS in PBS), and then transferred to an ultra low-bind 96-well plate (Corning, 7007). Cells were stained with Zombie-violet viability dye (BioLegend, 423107) at 100× for viability staining and/or antibody staining solution. FITC-conjugated antibody for lysozyme (Dako, […]) and APC-conjugated antibody for CD24 (BioLegend, 138505) were used at 100× dilution. Flow cytometry was performed using an LSR Fortessa (BD; Koch Institute Flow Cytometry Core at MIT). The data were analyzed using FlowJo v10 software.
In general terms: A flow cytometer gives signals particle by particle.

On to `O=C(/C=C\n1cnc(-c2cc(C(F)(F)F)cc(C(F)(F)F)c2)n1)NNc1cnccn1` [KPT-330], for which the “validation in secondary screen (SSMD above cutoff for both LYZ.NS and LYZ.S)” value in assay [1] was “multiple validated doses”. The “Paneth cell representation by flow cytometry” value in assay [2] is recorded as “statistically significant increases in Paneth cell representation”.
